Measured values from article doi:10.1101/2025.11.20.689572v1 (biorxiv, 2025).

Experiments:
5-HT1A = biological target: T1, 5-HT1A (Homo sapiens, UniProt P08908); assay: TRUPATH BRET2 G protein dissociation, HEK293; format: cell-based; conditions: HBSS, […] HEPES pH […] °C; agonist mode
T1 construct: gene HTR1A; full-length receptor; HEK293 with TRUPATH sensors

M4 = biological target: T2, M4 (Homo sapiens, UniProt P08173); assay: TRUPATH BRET2 G protein dissociation, HEK293; format: cell-based; conditions: HBSS, […] HEPES pH […] °C; agonist mode
T2 construct: gene CHRM4; full-length receptor; HEK293 with TRUPATH sensors (function)
T2 sequence (P08173 1-479): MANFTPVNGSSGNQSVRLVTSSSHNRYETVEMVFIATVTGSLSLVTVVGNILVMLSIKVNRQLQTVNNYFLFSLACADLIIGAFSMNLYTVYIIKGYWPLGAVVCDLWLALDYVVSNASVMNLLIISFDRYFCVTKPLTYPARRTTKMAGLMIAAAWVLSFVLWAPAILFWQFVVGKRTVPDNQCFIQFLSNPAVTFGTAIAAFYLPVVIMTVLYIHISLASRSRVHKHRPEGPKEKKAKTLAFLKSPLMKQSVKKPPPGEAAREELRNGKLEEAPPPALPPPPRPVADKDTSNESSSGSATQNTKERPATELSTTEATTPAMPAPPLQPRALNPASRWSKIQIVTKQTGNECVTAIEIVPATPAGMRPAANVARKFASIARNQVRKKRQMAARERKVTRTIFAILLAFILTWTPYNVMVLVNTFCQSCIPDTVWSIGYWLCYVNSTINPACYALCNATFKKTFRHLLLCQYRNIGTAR

DRD4 = biological target: T3, DRD4 (Homo sapiens, UniProt P21917); assay: cell-based; design: PRESTO-Tango beta-arrestin2 recruitment, luciferase luminescence, concentration-response; conditions: HTLA, read-out: Xanomeline; Assay=Tango; agonist mode, % of control agonist
T3 sequence (P21917 1-419): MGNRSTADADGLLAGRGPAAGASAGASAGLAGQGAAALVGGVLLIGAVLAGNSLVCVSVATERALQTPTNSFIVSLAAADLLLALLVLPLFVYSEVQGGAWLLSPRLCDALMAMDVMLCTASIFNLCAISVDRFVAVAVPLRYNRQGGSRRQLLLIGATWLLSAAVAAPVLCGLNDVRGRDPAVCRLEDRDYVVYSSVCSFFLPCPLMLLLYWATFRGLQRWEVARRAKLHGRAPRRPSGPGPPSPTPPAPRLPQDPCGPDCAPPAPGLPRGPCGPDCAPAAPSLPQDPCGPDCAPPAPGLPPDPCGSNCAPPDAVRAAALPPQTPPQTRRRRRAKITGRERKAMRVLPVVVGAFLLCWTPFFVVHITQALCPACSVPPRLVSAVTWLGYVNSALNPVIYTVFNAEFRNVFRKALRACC
Procedure: (§1) Off-target agonism across the human GPCRome was profiled using PRESTO-Tango, following established protocols with minor adaptations [10]–[12]. […] After ~6 h recovery, cells were transfected with 20 ng plasmid DNA per well and incubated overnight. The next day, 10 µL of test compound (prepared in DMEM + 1% dFBS) was added, and plates were incubated overnight. Media and compounds were removed, and 20 µL per well of Bright-Glo luciferase reagent diluted in assay buffer (Hank’s Balanced Salt Solution (HBSS), 20 mM HEPES, pH 7.4) was added. After 20 min at room temperature (dark), luminescence was recorded. Each plate included the dopamine D2 receptor (DRD2) stimulated with 100 nM quinpirole as a positive control. For the GPCRome screen, each receptor was tested in quadruplicate at 0 and 10 µM compound (final). Responses were expressed as fold change relative to the basal (0 µM) condition. Follow-up concentration–response assays were performed under identical conditions except that serial dilutions of compounds (maximum ~30 µM, final) were added to generate full concentration–response curves.

M3 = biological target: T4, M3 (Homo sapiens, UniProt P20309); assay: TRUPATH BRET2 G protein dissociation, HEK293; format: cell-based; conditions: HBSS, […] HEPES pH […] °C; agonist mode
T4 construct: gene CHRM3; full-length receptor; HEK293 with TRUPATH sensors (function)

M2 = biological target: T5, M2 (Homo sapiens, UniProt P08172); assay: TRUPATH BRET2 G protein dissociation, HEK293; format: cell-based; conditions: HBSS, […] HEPES pH […] °C; agonist mode
T5 construct: gene CHRM2; full-length receptor; HEK293 with TRUPATH sensors (function)
T5 sequence (P08172 1-466): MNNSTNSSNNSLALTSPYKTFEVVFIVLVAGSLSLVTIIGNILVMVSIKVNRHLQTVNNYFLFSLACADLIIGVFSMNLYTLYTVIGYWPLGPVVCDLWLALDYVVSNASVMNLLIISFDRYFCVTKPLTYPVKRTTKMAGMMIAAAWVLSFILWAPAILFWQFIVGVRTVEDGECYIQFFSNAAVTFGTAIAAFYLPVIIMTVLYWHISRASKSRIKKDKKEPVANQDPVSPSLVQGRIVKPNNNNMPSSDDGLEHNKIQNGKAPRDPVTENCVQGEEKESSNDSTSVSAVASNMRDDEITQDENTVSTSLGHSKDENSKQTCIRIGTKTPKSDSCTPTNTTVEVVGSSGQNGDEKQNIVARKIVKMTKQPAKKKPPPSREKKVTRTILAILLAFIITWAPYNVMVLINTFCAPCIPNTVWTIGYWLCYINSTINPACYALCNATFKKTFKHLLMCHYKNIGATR

KOR = biological target: T6, KOR (Homo sapiens, UniProt P41145); assay: competitive radioligand binding, HEK293 membranes
T6 construct: gene OPRK1; full-length receptor; HEK293 cell membranes
From the text: competitive radioligand binding, HEK293 membranes on KOR

SSTR4 = SSTR4 (Homo sapiens, UniProt P31391); assay: cell-based; design: PRESTO-Tango beta-arrestin2 recruitment, luciferase luminescence, concentration-response; conditions: HTLA, read-out: N-Desmethyl Xanomeline; Assay=Tango; agonist mode, % of control agonist
Procedure: as §1

| SMILES | EC50 (5-HT1A) | EC50 (M4) | Emax (DRD4) [%] | EC50 (M3) | EC50 (M2) | Ki (KOR) [nM] | Emax (SSTR4) [%] |
| --- | --- | --- | --- | --- | --- | --- | --- |
| CCCCCCOc1nsnc1C1=CCCN(C)C1 [Xanomeline] | full or partial agonists at 5-HT1D and 5-HT1A in a transducer-dependent fashion | xanomeline being more potent and efficacious than carbachol at M1 and M4 muscarinic receptors | 11.4 | differential activation of M1-M5 muscarinic receptor transducers | differential activation of M1-M5 muscarinic receptor transducers | 1780 |  |
| CCCCCCOc1nsnc1C1=CCCNC1 [N-desmethylxanomeline] | full or partial agonists at 5-HT1D and 5-HT1A in a transducer-dependent fashion | differential activation of M1-M5 muscarinic receptor transducers |  | differential activation of M1-M5 muscarinic receptor transducers | differential activation of M1-M5 muscarinic receptor transducers | 1020 | 2.88 |
